Assay results from ChEMBL document CHEMBL1156542, “Facile radiosynthesis of fluorine-18 labeled beta-blockers. Synthesis, radiolabeling, and ex vivo biodistribution of [18F]-(2S and 2R)-1-(1-fluoropropan-2-ylamino)-3-(m-tolyloxy)propan-2-ol” (J Med Chem, 2008).
Blank lines part the entries; values can stand above or below the molecule they belong to.

What was measured:
[1] = Lipophilicity, log P at pH 7.4; format: physicochemical; conditions: buffer
[2] = Metabolic stability in Sprague-Dawley rat plasma at 70 uCi, iv after 30 mins; format: ADME, organism-based; conditions: read-out: Stability
Hippocampus [3] = experiment: Biodistribution in Sprague-Dawley rat hippocampus at 70 uCi, iv after 15 mins; format: ADME, organism-based; conditions: in vivo, 0.25 h
Cortex [4] = experiment: Biodistribution in Sprague-Dawley rat rest of cortex at 70 uCi, iv after 5 mins; format: ADME, organism-based; conditions: in vivo
Bone [5] = experiment: Biodistribution in Sprague-Dawley rat bone at 70 uCi, iv after 15 mins; format: ADME, organism-based, Bone element; conditions: in vivo, 0.25 h
Hypothalamus [6] = experiment: Biodistribution in Sprague-Dawley rat hypothalamus at 70 uCi, iv after 5 mins; format: ADME, organism-based; conditions: in vivo
Thalamus [7] = experiment: Biodistribution in Sprague-Dawley rat thalamus at 70 uCi, iv after 60 mins; format: ADME, organism-based; conditions: in vivo, 1 h
Heart [8] = experiment: Biodistribution in Sprague-Dawley rat heart at 70 uCi, iv after 5 mins; format: ADME, organism-based; conditions: in vivo
[9] = Metabolic stability in Sprague-Dawley rat plasma at 70 uCi, iv after 15 mins; format: ADME, organism-based; conditions: read-out: Stability
Hippocampus [10] = experiment: Biodistribution in Sprague-Dawley rat hippocampus at 70 uCi, iv after 60 mins; format: ADME, organism-based; conditions: in vivo, 1 h
Heart [11] = experiment: Biodistribution in Sprague-Dawley rat heart at 70 uCi, iv after 15 mins; format: ADME, organism-based; conditions: in vivo, 0.25 h
Hippocampus [12] = experiment: Biodistribution in Sprague-Dawley rat hippocampus at 70 uCi, iv after 5 mins; format: ADME, organism-based; conditions: in vivo
Plasma [13] = experiment: Biodistribution in Sprague-Dawley rat plasma at 70 uCi, iv after 30 mins; format: ADME, organism-based; conditions: in vivo, 0.5 h
Brain [14] = experiment: Biodistribution in Sprague-Dawley rat rest of brain at 70 uCi, iv after 60 mins; format: ADME, organism-based; conditions: in vivo, 1 h
Hypothalamus [15] = experiment: Biodistribution in Sprague-Dawley rat hypothalamus at 70 uCi, iv after 15 mins; format: ADME, organism-based; conditions: in vivo, 0.25 h
Brain [16] = experiment: Biodistribution in Sprague-Dawley rat rest of brain at 70 uCi, iv after 15 mins; format: ADME, organism-based; conditions: in vivo, 0.25 h
Plasma [17] = experiment: Biodistribution in Sprague-Dawley rat plasma at 70 uCi, iv after 15 mins; format: ADME, organism-based; conditions: in vivo, 0.25 h
[18] = Metabolic stability in Sprague-Dawley rat plasma at 70 uCi, iv after 60 mins; format: ADME, organism-based; conditions: read-out: Stability
Plasma [19] = experiment: Biodistribution in Sprague-Dawley rat plasma at 70 uCi, iv after 5 mins; format: ADME, organism-based; conditions: in vivo
Heart [20] = experiment: Biodistribution in Sprague-Dawley rat heart at 70 uCi, iv after 60 mins; format: ADME, organism-based; conditions: in vivo, 1 h
Hippocampus [21] = experiment: Biodistribution in Sprague-Dawley rat hippocampus at 70 uCi, iv after 30 mins; format: ADME, organism-based; conditions: in vivo, 0.5 h
Cerebellum [22] = experiment: Biodistribution in Sprague-Dawley rat cerebellum at 70 uCi, iv after 60 mins; format: ADME, organism-based; conditions: in vivo, 1 h
Thalamus [23] = experiment: Biodistribution in Sprague-Dawley rat thalamus at 70 uCi, iv after 30 mins; format: ADME, organism-based; conditions: in vivo, 0.5 h
Cortex [24] = experiment: Biodistribution in Sprague-Dawley rat rest of cortex at 70 uCi, iv after 60 mins; format: ADME, organism-based; conditions: in vivo, 1 h
[25] = Metabolic stability in Sprague-Dawley rat plasma at 70 uCi, iv after 5 mins; format: ADME, organism-based; conditions: read-out: Stability
Thalamus [26] = experiment: Biodistribution in Sprague-Dawley rat thalamus at 70 uCi, iv after 15 mins; format: ADME, organism-based; conditions: in vivo, 0.25 h
Thalamus [27] = experiment: Biodistribution in Sprague-Dawley rat thalamus at 70 uCi, iv after 5 mins; format: ADME, organism-based; conditions: in vivo
Hypothalamus [28] = experiment: Biodistribution in Sprague-Dawley rat hypothalamus at 70 uCi, iv after 60 mins; format: ADME, organism-based; conditions: in vivo, 1 h
Striatum [29] = experiment: Biodistribution in Sprague-Dawley rat striatum at 70 uCi, iv after 5 mins; format: ADME, organism-based; conditions: in vivo
Cerebellum [30] = experiment: Biodistribution in Sprague-Dawley rat cerebellum at 70 uCi, iv after 15 mins; format: ADME, organism-based; conditions: in vivo, 0.25 h
Hypothalamus [31] = experiment: Biodistribution in Sprague-Dawley rat hypothalamus at 70 uCi, iv after 30 mins; format: ADME, organism-based; conditions: in vivo, 0.5 h
Striatum [32] = experiment: Biodistribution in Sprague-Dawley rat striatum at 70 uCi, iv after 15 mins; format: ADME, organism-based; conditions: in vivo, 0.25 h
Cortex [33] = experiment: Biodistribution in Sprague-Dawley rat rest of cortex at 70 uCi, iv after 30 mins; format: ADME, organism-based; conditions: in vivo, 0.5 h
Brain [34] = experiment: Biodistribution in Sprague-Dawley rat rest of brain at 70 uCi, iv after 30 mins; format: ADME, organism-based; conditions: in vivo, 0.5 h
Brain [35] = experiment: Biodistribution in Sprague-Dawley rat rest of brain at 70 uCi, iv after 5 mins; format: ADME, organism-based; conditions: in vivo
Bone [36] = experiment: Biodistribution in Sprague-Dawley rat bone at 70 uCi, iv after 60 mins; format: ADME, organism-based, Bone element; conditions: in vivo, 1 h
Bone [37] = experiment: Biodistribution in Sprague-Dawley rat bone at 70 uCi, iv after 5 mins; format: ADME, organism-based, Bone element; conditions: in vivo
Cerebellum [38] = experiment: Biodistribution in Sprague-Dawley rat cerebellum at 70 uCi, iv after 5 mins; format: ADME, organism-based; conditions: in vivo
[39] = Biodistribution in Sprague-Dawley rat frontal cortex at 70 uCi, iv after 15 mins; format: ADME, organism-based; conditions: in vivo, 0.25 h
Heart [40] = experiment: Biodistribution in Sprague-Dawley rat heart at 70 uCi, iv after 30 mins; format: ADME, organism-based; conditions: in vivo, 0.5 h
Bone [41] = experiment: Biodistribution in Sprague-Dawley rat bone at 70 uCi, iv after 30 mins; format: ADME, organism-based, Bone element; conditions: in vivo, 0.5 h
Cortex [42] = experiment: Biodistribution in Sprague-Dawley rat rest of cortex at 70 uCi, iv after 15 mins; format: ADME, organism-based; conditions: in vivo, 0.25 h
[43] = Biodistribution in Sprague-Dawley rat frontal cortex at 70 uCi, iv after 30 mins; format: ADME, organism-based; conditions: in vivo, 0.5 h
[44] = Biodistribution in Sprague-Dawley rat frontal cortex at 70 uCi, iv after 60 mins; format: ADME, organism-based; conditions: in vivo, 1 h
Plasma [45] = experiment: Biodistribution in Sprague-Dawley rat plasma at 70 uCi, iv after 60 mins; format: ADME, organism-based; conditions: in vivo, 1 h
Striatum [46] = experiment: Biodistribution in Sprague-Dawley rat striatum at 70 uCi, iv after 30 mins; format: ADME, organism-based; conditions: in vivo, 0.5 h
Cerebellum [47] = experiment: Biodistribution in Sprague-Dawley rat cerebellum at 70 uCi, iv after 30 mins; format: ADME, organism-based; conditions: in vivo, 0.5 h
[48] = Biodistribution in Sprague-Dawley rat frontal cortex at 70 uCi, iv after 5 mins; format: ADME, organism-based; conditions: in vivo
Striatum [49] = experiment: Biodistribution in Sprague-Dawley rat striatum at 70 uCi, iv after 60 mins; format: ADME, organism-based; conditions: in vivo, 1 h
[50] = target: Beta-2 adrenergic receptor (Homo sapiens, UniProt P07550); experiment: Binding affinity to beta2 adrenergic receptor
Beta-2 adrenergic receptor, sequence (P07550 whole entry): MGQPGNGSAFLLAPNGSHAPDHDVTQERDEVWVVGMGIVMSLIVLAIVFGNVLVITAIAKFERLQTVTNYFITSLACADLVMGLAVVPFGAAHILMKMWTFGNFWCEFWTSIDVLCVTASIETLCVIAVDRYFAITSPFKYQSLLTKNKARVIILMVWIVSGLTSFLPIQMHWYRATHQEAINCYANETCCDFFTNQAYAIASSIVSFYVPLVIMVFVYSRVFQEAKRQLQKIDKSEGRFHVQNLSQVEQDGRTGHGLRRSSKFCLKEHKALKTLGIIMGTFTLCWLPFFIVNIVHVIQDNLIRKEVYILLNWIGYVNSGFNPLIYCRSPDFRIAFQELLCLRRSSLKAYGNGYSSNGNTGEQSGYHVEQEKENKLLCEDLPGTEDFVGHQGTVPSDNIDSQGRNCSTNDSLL

[51] = target: Beta-1 adrenergic receptor (Homo sapiens, UniProt P08588); experiment: Binding affinity to beta-1 adrenergic receptor
Beta-1 adrenergic receptor, sequence (P08588 whole entry): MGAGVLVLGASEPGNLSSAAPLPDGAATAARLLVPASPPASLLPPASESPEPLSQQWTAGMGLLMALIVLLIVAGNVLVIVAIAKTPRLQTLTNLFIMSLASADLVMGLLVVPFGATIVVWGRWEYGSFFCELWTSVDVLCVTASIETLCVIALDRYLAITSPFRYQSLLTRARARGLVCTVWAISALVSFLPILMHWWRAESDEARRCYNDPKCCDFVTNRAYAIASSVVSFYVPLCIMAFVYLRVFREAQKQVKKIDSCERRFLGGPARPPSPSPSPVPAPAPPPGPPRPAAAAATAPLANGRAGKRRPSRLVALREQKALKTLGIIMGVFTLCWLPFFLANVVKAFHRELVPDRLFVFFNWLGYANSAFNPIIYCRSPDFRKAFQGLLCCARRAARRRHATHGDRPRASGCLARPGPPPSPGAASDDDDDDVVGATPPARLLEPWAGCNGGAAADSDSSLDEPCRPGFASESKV

logD [1]: 0.2
Structure (SMILES): Cc1cccc(OC[11C@@H](O)CNC(C)C)c1

remaining at 0.5 h [2]: 16.4%
Drug uptake (Hippocampus [3]): 0.63 % ID/g
Drug uptake (Cortex [4]): 1.12 % ID/g
Drug uptake (Bone [5]): 0.21 % ID/g
Drug uptake (Hypothalamus [6]): 0.77 % ID/g
Drug uptake (Thalamus [7]): 0.11 % ID/g
logD [1]: 1.68
Drug uptake (Heart [8]): 0.59 % ID/g
remaining at 0.25 h [9]: 28.6%
Drug uptake (Hippocampus [10]): 0.12 % ID/g
Drug uptake (Heart [11]): 0.26 % ID/g
Drug uptake (Hippocampus [12]): 0.91 % ID/g
Drug uptake (Plasma [13]): 0.13 % ID/g
Drug uptake (Brain [14]): 0.1 % ID/g
Drug uptake (Hypothalamus [15]): 0.5 % ID/g
Drug uptake (Brain [16]): 0.5 % ID/g
Drug uptake (Plasma [17]): 0.13 % ID/g
remaining at 1 h [18]: 11.9%
Drug uptake (Plasma [19]): 0.16 % ID/g
Drug uptake (Heart [20]): 0.06 % ID/g
Drug uptake (Hippocampus [21]): 0.31 % ID/g
Drug uptake (Cerebellum [22]): 0.08 % ID/g
Drug uptake (Thalamus [23]): 0.29 % ID/g
Drug uptake (Cortex [24]): 0.11 % ID/g
remaining at 5 min [25]: 59.2%
Drug uptake (Thalamus [26]): 0.65 % ID/g
Drug uptake (Thalamus [27]): 1.03 % ID/g
Drug uptake (Hypothalamus [28]): 0.09 % ID/g
Drug uptake (Striatum [29]): 0.97 % ID/g
Drug uptake (Cerebellum [30]): 0.46 % ID/g
Drug uptake (Hypothalamus [31]): 0.22 % ID/g
Drug uptake (Striatum [32]): 0.59 % ID/g
Drug uptake (Cortex [33]): 0.29 % ID/g
Drug uptake (Brain [34]): 0.24 % ID/g
Drug uptake (Brain [35]): 0.84 % ID/g
Drug uptake (Bone [36]): 0.18 % ID/g
Drug uptake (Bone [37]): 0.18 % ID/g
Drug uptake (Cerebellum [38]): 0.75 % ID/g
Drug uptake [39]: 0.67 % ID/g
Drug uptake (Heart [40]): 0.15 % ID/g
Drug uptake (Bone [41]): 0.18 % ID/g
Drug uptake (Cortex [42]): 0.62 % ID/g
Drug uptake [43]: 0.3 % ID/g
Drug uptake [44]: 0.12 % ID/g
Drug uptake (Plasma [45]): 0.08 % ID/g
Drug uptake (Striatum [46]): 0.27 % ID/g
Drug uptake (Cerebellum [47]): 0.21 % ID/g
Drug uptake [48]: 1.21 % ID/g
Drug uptake (Striatum [49]): 0.11 % ID/g
Structure (SMILES): Cc1cccc(OC[C@@H](O)CNC(C)C[18F])c1 (stereo partly drawn)

remaining at 0.5 h [2]: 12.6%
Drug uptake (Hippocampus [3]): 0.6 % ID/g
Drug uptake (Cortex [4]): 1.12 % ID/g
Drug uptake (Bone [5]): 0.22 % ID/g
Drug uptake (Hypothalamus [6]): 0.92 % ID/g
Drug uptake (Thalamus [7]): 0.12 % ID/g
logD [1]: 1.79
Drug uptake (Heart [8]): 0.51 % ID/g
remaining at 0.25 h [9]: 25.5%
Drug uptake (Hippocampus [10]): 0.12 % ID/g
Drug uptake (Heart [11]): 0.26 % ID/g
Drug uptake (Hippocampus [12]): 1.01 % ID/g
Drug uptake (Plasma [13]): 0.13 % ID/g
Drug uptake (Brain [14]): 0.1 % ID/g
Drug uptake (Hypothalamus [15]): 0.46 % ID/g
Drug uptake (Brain [16]): 0.47 % ID/g
Drug uptake (Plasma [17]): 0.13 % ID/g
remaining at 1 h [18]: 7.7%
Drug uptake (Plasma [19]): 0.16 % ID/g
Drug uptake (Heart [20]): 0.07 % ID/g
Drug uptake (Hippocampus [21]): 0.31 % ID/g
Drug uptake (Cerebellum [22]): 0.08 % ID/g
Drug uptake (Thalamus [23]): 0.3 % ID/g
Drug uptake (Cortex [24]): 0.11 % ID/g
remaining at 5 min [25]: 61.9%
Drug uptake (Thalamus [26]): 0.62 % ID/g
Drug uptake (Thalamus [27]): 1.19 % ID/g
Drug uptake (Hypothalamus [28]): 0.09 % ID/g
Drug uptake (Striatum [29]): 1.04 % ID/g
Drug uptake (Cerebellum [30]): 0.43 % ID/g
Drug uptake (Hypothalamus [31]): 0.23 % ID/g
Drug uptake (Striatum [32]): 0.54 % ID/g
Drug uptake (Cortex [33]): 0.29 % ID/g
Drug uptake (Brain [34]): 0.25 % ID/g
Drug uptake (Brain [35]): 0.88 % ID/g
Drug uptake (Bone [36]): 0.25 % ID/g
Drug uptake (Bone [37]): 0.3 % ID/g
Drug uptake (Cerebellum [38]): 0.82 % ID/g
Drug uptake [39]: 0.59 % ID/g
Drug uptake (Heart [40]): 0.15 % ID/g
Drug uptake (Bone [41]): 0.3 % ID/g
Drug uptake (Cortex [42]): 0.55 % ID/g
Drug uptake [43]: 0.29 % ID/g
Drug uptake [44]: 0.12 % ID/g
Drug uptake (Plasma [45]): 0.07 % ID/g
Drug uptake (Striatum [46]): 0.26 % ID/g
Drug uptake (Cerebellum [47]): 0.23 % ID/g
Drug uptake [48]: 1.3 % ID/g
Drug uptake (Striatum [49]): 0.11 % ID/g
Structure (SMILES): Cc1cccc(OC[C@H](O)CNC(C)C[18F])c1 (stereo partly drawn)

Kd [50]: 1200 pM
Kd [51]: 380 pM
Structure (SMILES): Cc1cccc(OC[C@@H](O)CNC(C)C)c1 [(S)-TOLIPROLOL]

logD [1]: 1.36
Structure (SMILES): CC(C)NCC(O)COc1cccc2[nH]c3ccccc3c12 (stereo not drawn) [CARAZOLOL]

Structure (SMILES): CC(CF)NCC(O)COc1cccc2[nH]c3ccccc3c12 (stereo not drawn) [FLUOROCARAZOLOL]
logD [1]: 2.2
